Test results: patent US12268683B2, “Compounds and methods for synergistic activation of M channels” (THE REGENTS OF THE UNIVERSITY OF CALIFORNIA, priority 2018, dated 2025)

Assays:
[1] = molecular target: KCNQ3* (Homo sapiens, UniProt O43525, A315T); experiment: [3H]GABA competition binding to oocytes expressing KCNQ3*; conditions: 100 μM, 10 μM 3H-GABA
Protocol: (§1) Each group of oocytes was placed in a round-bottomed, 15-ml falcon tube, washed with ND96, and then resuspended in ND96 containing 10 μM γ-[2,3-^3H(N)]-aminobutyric acid (^3H-GABA) (Perkin Elmer, Waltham, Mass.) at 25-40 Ci/mMol specific activity either alone, or with 100 μM 2FPG or 100 μM 3FMSG, for a 30 minute incubation at room temperature. Oocytes were then washed four times in 16° C. ND96, transferred to individual wells in a 96 well plate and lysed in 0.2% SDS in ND96. Each oocyte lysate was transferred to a scintillation vial containing 5 ml Cytoscint scintillation cocktail fluid (MP Biomedicals, Santa Ana, Calif.). Vials were capped, shaken, and then allowed to sit at room temperature for at least 30 min before scintillation counting in a Beckmann Coulter LS6500 liquid scintillation counter.

[2] = molecular target: KCNQ2 (Homo sapiens, UniProt O43526); experiment: [3H]GABA competition binding to oocytes expressing KCNQ2; conditions: 100 μM, 10 μM 3H-GABA
Protocol: as §1

[3] = molecular target: KCNQ1/KCNE1 (Homo sapiens, UniProt P51787); experiment: TEVC of KCNQ1/KCNE1 channels; format: cell-based
Description: (§2) As previously described (12), we generated cRNA transcripts encoding human KCNA1, KCNE1, KCNE2, KCNE3, KCNQ1, KCNQ2, KCNQ3, KCNQ4 or KCNQ5 by in vitro transcription using the T7 polymerase mMessage mMachine kit (Thermo Fisher Scientific), after vector linearization, from cDNA sub-cloned into plasmids incorporating Xenopus laevis β-globin 5′ and 3′ UTRs flanking the coding region to enhance translation and cRNA stability. We quantified cRNA by spectrophotometry. We generated mutant KCNQ2 and KCNQ3 cDNAs by site-directed mutagenesis with a QuikChange kit (Stratagene, San Diego, Calif.) and prepared the cRNAs as above. We injected defolliculated stage V and VI Xenopus laevis oocytes (Ecocyte Bioscience, Austin, Tex. and Xenoocyte, Dexter, Mich., US) with KCNE and/or KCNQ cRNAs (5-20 ng). […]
(§3) We performed TEVC at room temperature using an OC-725C amplifier (Warner Instruments, Hamden, Conn.) and pClamp10 software (Molecular Devices, Sunnyvale, Calif.) 2-5 days after cRNA injection as described in the section above. […] We recorded currents in response to voltage pulses between −120 or −80 mV and +40 mV at 20 mV intervals from a holding potential of −80 mV, to yield current-voltage relationships, current magnitude, and for quantifying activation rate. We analyzed data using Clampfit (Molecular Devices) and Graphpad Prism software (GraphPad, San Diego, Calif., USA); values are stated as mean±SEM. […]

[4] = molecular target: KCNQ1/KCNE2 (Homo sapiens, UniProt P51787); experiment: TEVC of KCNQ1/KCNE2 channels; format: cell-based
Description: as §2, §3

Structure (SMILES)	competition with [3H]GABA binding to KCNQ3* [1]	competition with [3H]GABA binding to KCNQ2 [2]	sensitivity of KCNQ1-KCNE1, fold less sensitive than KCNQ1 [3]	EC50 ([3]; read-out: EC50 of KCNQ1/KCNE1 activation)	effect on KCNQ1/KCNE2 (in words) [4]
CS(=O)(=O)N(CC(=O)O)c1cccc(F)c1 [3FMSG]	able to compete out GABA binding	able to compete out GABA binding	–	–	–
CCCCCCCCC/C=C/C=O [(E)-2-dodecenal]	–	–	> twofold	260 ± 100 nM	minimal effects
